Measured values published in patent publication US9687429B2, “Antimicrobial compositions containing low concentrations of botanicals” (THE TRUSTEES OF COLUMBIA UNIVERSITY IN THE CITY OF NEW YORK, priority 2007, dated 2017).

Key:
S. aureus [1] = test: Five-minute kill test of solutions in 10% SDA40-B alcohol and water, colony counts; type: cell-based; settings: control counts 1 × 10^6 to 5 × 10^6
Protocol: Various concentrations of basil oil and acetic, lactic, and citric acids, separately and in combination, were prepared in 10 percent SDA40-B alcohol and water, and adjusted to 100 percent. Except for citric acid, which was added by weight, all other ingredients were measured by volume. 0.9 ml of each solution were dispensed in sterile culture tubes, in triplicate, and 0.1 ml of a 10^7 cfu/ml S. aureus culture was added to the tubes, vortexed, and then, five minutes later, 9.0 ml of drug inactivating medium was added to each tube. Serial dilutions were made with the drug inactivating medium. 0.5 ml of the dilutions were plated on trypticase soy agar (“TSA”) plates. As a control, water containing 10 percent SDA40-B alcohol was processed in parallel. The plates were incubated at 37° C. for 24-48 hours and then the colony counts were determined.
The same methodology was used to test the antimicrobial activity of combinations of citric acid with other essential oils.
Various concentrations of cinnamon leaf oil and citric acid were dissolved in SDA 40-B alcohol (10%) and water, and adjusted to 100 percent. Except for citric acid, which was added by weight, all other ingredients were measured by volume. 0.9 ml of each solution were dispensed in sterile culture tubes, in triplicate, and 0.1 ml of 10^7 cfu/ml of S. aureus culture was added to the tubes, vortexed, and then, five minutes later, 9.0 ml of drug inactivating medium was added to each tube. Serial dilutions were made with the drug inactivating medium. 0.5 ml of the dilutions were plated on trypticase soy agar (“TSA”) plates. As a control, water containing 10% percent SDA40-B alcohol was processed in parallel. The plates were incubated at 37° C. for 24-48 hours and then the colony counts were determined.
The following experiments were performed to evaluate the antibacterial activity of LG and Citric acid dissolved in alcohol, where the test organism used was S. aureus. Various amounts of LG oil and Citric acid were dissolved in SDA40-B alcohol, and then water was added to result in the EO concentration shown and an alcohol concentration of 10 percent. 0.9 ml of each solution were dispensed in sterile culture tubes, in triplicate, and 0.1 ml of a 10^7 cfu/ml S. aureus culture was added to the tubes, vortexed, and then, five minutes later, 9.0 ml of drug inactivating medium was added to each tube. Serial dilutions were made with drug inactivating medium. 0.5 ml of the dilutions were plated on trypticase soy agar (“TSA”) plates. As a control, water containing 10 percent SDA40-B alcohol was processed in parallel. The plates were incubated at 37° C. for 24-48 hours and then the colony counts were determined.

S. aureus [2] = test: Synergistic activity of essential oils and plant extracts with citric acid, log10 reduction from control bacterial counts; type: cell-based; settings: Table 202, compounds in %, control counts 1×10^7 to 5×10^7
Excerpt: Log10 reduction from control bacterial counts that range from 1×10^7 to 5×10^7.

S. aureus [3] = test: Soap rapid kill test (30 second kill) in presence of bovine serum; type: cell-based
Protocol: The antimicrobial activity of the above soap was tested in parallel with commercial Softsoap® containing triclosan (Softsoap® Antibacterial; Colgate-Palmolive). 0.1 ml of a 10^8 cfu/ml culture of each microbe tested was mixed with 0.1 ml of bovine serum and placed in a sterile culture tube. 0.8 ml of the test soap formulation was added to the tube and vortexed for 30 seconds. Then 9.0 ml DNB was added to neutralize the activity of the soap. The tube was then vortexed and serially diluted with DNB. 0.5 ml of the diluted solution was plated on TSA plates. The same soap base lacking cinnamon oil, citric acid, and orange oil, with phosphate buffered saline mixed with the culture, were used as the controls.
The antimicrobial activity of the above soap was tested in parallel with commercial Dial® Antibacterial Hand Soap) containing triclosan. 0.1 ml of a 10^8 cfu/ml culture of each microbe tested was mixed with 0.1 ml of bovine serum and placed in a sterile culture tube. 0.8 ml of the test soap formulation was added to the tube and vortexed for 30 seconds. Then 9.0 ml DNB was added to neutralize the activity of the soap. The tube was then vortexed and serially diluted with DNB. 0.5 ml of the diluted solution was plated on TSA plates. The same soap base lacking cinnamon oil, citric acid, and orange oil, with phosphate buffered saline mixed with the culture, were used as the controls.
The following method was used. A mixture of 0.1 ml of 10^7 cfu/ml of S. aureus culture and 0.1 ml of bovine serum were placed in a sterile culture tube. 0.8 ml of the test soap formulation was added to the tube and vortexed for 30 seconds. 9.0 ml DFN was added to the tube to neutralize the activity of the soap; this tube was then vortexed and serially diluted with DFN. 0.5 ml of the diluted solution was plated on trypticase soy agar plates, incubated at 37° C. for 24-48 hours and the colony counts were determined. Soft Soap® and Dial® soaps containing 0.15% triclosan was also tested similarly at the same time. The soap base without essential oils and Citric acid containing the culture were used as controls.
The following method was used. A mixture of 0.1 ml of 10^7 cfu/ml of S. aureus culture and 0.1 ml of bovine serum were placed in a sterile culture tube. 0.8 ml of the test soap formulation was added to the tube and vortexed for 30 seconds. 9.0 ml DFN was added to the tube to neutralize the activity of the soap; this tube was then vortexed and serially diluted with DFN. 0.5 ml of the diluted solution was plated on trypticase soy agar plates, incubated at 37° C. for 24-48 hrs and the colony counts were determined. Soft Soap® and Dial® soaps containing 0.15% triclosan was also tested similarly at the same time. The soap base without essential oils and citric acid containing the culture were used as controls.
The following method was used. A mixture of 0.1 ml of 10^8 cfu/ml of S. aureus culture and 0.1 ml of bovine serum were placed in a sterile culture tube. 0.8 ml of the test soap formulation was added to the tube and vortexed for 30 seconds. 9.0 ml DFN was added to the tube to neutralize the activity of the soap; this tube was then vortexed and serially diluted with DFN. 0.5 ml of the diluted solution was plated on trypticase soy agar plates, incubated at 37° C. for 24-48 hours and the colony counts were determined.
A mixture of 0.1 ml of 10^7 cfu/ml of S. aureus culture and 0.1 ml of bovine serum were placed in a sterile culture tube. 0.8 ml of the test soap formulation was added to the tube and vortexed for 30 seconds. 9.0 ml DFN was added to the tube to neutralize the activity of the soap; this tube was then vortexed and serially diluted with DFN.

S. aureus [4] = settings: erythromycin, gentamicin, vancomycin, ciproflaxin, clindamycin, tetracycline; cited from earlier work

CC(C)=CCCC(C)=CCCC(C)=CCO [0.25% Farnesol]
Log10 Reduction from control bacterial counts (S. aureus [1]; Table 106, five minutes): 0 Log10

O=C(O)CC(O)(CC(=O)O)C(=O)O [1 Citric acid]
Log10 Reduction from control bacterial counts (S. aureus [2]): 0.7 Log10

CC(=O)O [1% Acetic acid (AA)]
Log10 Reduction from control bacterial counts (S. aureus [1]; Table 105, five minutes): 0.2 Log10

O=C(O)CC(O)(CC(=O)O)C(=O)O [1% Citric Acid (CA)]
Log10 Reduction from control bacterial counts (S. aureus [1]; Table 105, five minutes): 0.1 Log10

CC(O)C(=O)O (centres unmarked) [1% Lactic acid (LA)]
Log10 Reduction from control bacterial counts (S. aureus [1]; Table 105, five minutes): 2.3 Log10

CCCCCCCCC(O)CO (centres unmarked) [1,2 decanediol (0.3%)]
Log10 reduction from control (S. aureus [3]; Table 150, 30 seconds, bovine serum, alkanediols 0.3%, control 2 × 10^8-5 × 10^8): 0.6 Log10

CCCCCCCCC(O)CO (centres unmarked) [1,2 decanediol(0.5%)]
Log10 reduction from control (S. aureus [3]; Table 151, 30 second Kill, alkanediols 0.5%, soaps pH 4.5-4.6, control 2 × 10^8-5 × 10^8): 1.4 Log10

CC(C)=CCC/C(C)=C/CC1CCCC1=O (centres unmarked) [apritone]
effect on susceptibility of S. aureus to antibiotics (in words) (S. aureus [4]): enhanced the susceptibility of S. aureus

CC(C)=CCC[C@](C)(O)C1CC=C(C)CC1 (some centres unmarked) [bisabolol]
effect on susceptibility of S. aureus to antibiotics (in words) (S. aureus [4]): enhanced the susceptibility of S. aureus

O=C(O)CC(O)(CC(=O)O)C(=O)O [citric acid]
antibacterial activity of soap, 30 second kill (in words) (S. aureus [3]; bovine serum): enhance the activity of soaps containing triclosan

CCCCCCCCC(O)CO (centres unmarked) [decanediol, 1,2 decanediol]
antibacterial activity of soap, 30 second kill (in words) (S. aureus [3]; bovine serum): enhances the activity of Dial®-T Soap+LG-O-Cit 4

C=CCc1ccc(O)c(OC)c1 [eugenol]
antibacterial activity of soap, 30 second kill (in words) (S. aureus [3]; bovine serum): improved the antimicrobial effect

CC(C)=CCCC(C)=CCCC(C)=CCO [farnesol]
effect on susceptibility of S. aureus to antibiotics (in words) (S. aureus [4]): enhanced the susceptibility of S. aureus

C=CC(C)(O)CCC=C(C)CCC=C(C)C (centres unmarked) [nerolidol]
effect on susceptibility of S. aureus to antibiotics (in words) (S. aureus [4]): enhanced the susceptibility of S. aureus
